Test results published in patent US20210106703A1, “RADIOIMMUNOCONJUGATES IN COMBINATION WITH OTHER DRUGS AS TREATMENT AGAINST NHL” (Nordic Nanovector ASA, priority 2017, published 2021).
“Also recorded” adds a separate entry of the source.

T1: CD37 receptor (Homo sapiens, UniProt P11049)
T1 sequence (P11049 1-281): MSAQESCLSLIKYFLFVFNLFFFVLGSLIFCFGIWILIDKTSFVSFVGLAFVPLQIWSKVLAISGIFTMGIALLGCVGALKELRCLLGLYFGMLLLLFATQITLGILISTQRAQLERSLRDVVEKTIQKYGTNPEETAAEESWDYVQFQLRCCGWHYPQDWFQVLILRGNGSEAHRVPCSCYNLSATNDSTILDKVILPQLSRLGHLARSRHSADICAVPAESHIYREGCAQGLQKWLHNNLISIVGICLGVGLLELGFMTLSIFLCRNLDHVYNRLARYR

B1: lilotomab: murine anti-CD37 IgG1 mAb (antibody, chains of the INN, looked up, V domains shown)
VH: EIQLQQSGPELVKPGASVKVSCKASGYSFTDYNMYWVKQSHGKSLEWIGYIDPYNGDTTYNQKFKGKATLTVDKSSSTAFIHLNSLTSEDSAVYYCARSPYGHYAMDYWGQGTSVTVSS
VL: DIVMTQSHKLLSTSVGDRVSITCKASQDVSTAVDWYQQKPGQSPKLLINWASTRHTGVPDRFTGSGSGTDYTLTISSMQAEDLALYYCRQHYSTPFTFGSGTKLEIK

Legend:
OCI-Ly8 cells = test: Cell cycle analysis (PI, Muse flow cytometer); assay type: cell-based, human; conditions: OCI-Ly8, 1 μM inhibitor + ^177Lu-lilotomab, versus ^177Lu-lilotomab alone
Method: Cells were harvested at 0 […], and fixed in 70% ethanol at -20° C. for at least 3 h. After staining with the Muse® Cell Cycle Assay Kit (Merck Millipore, Molsheim, France) using propidium iodide in the dark at room temperature for 30 min, cell cycle distribution was analyzed using a Muse® flow cytometer. The percentage of cells in the G0/G1, S and G2/M was calculated (mean of three experiments in triplicate) and the effect of WEE-1 and MYT-1 kinase inhibitors on the cell cycle was assessed.

Ramos cells [1] = test: Proliferation study with Wee-1/Myt-1 inhibitors and ^177Lu-lilotomab; assay type: cell-based, human; conditions: inhibitor 1 μM + ^177Lu-lilotomab 6 MBq/mL (RIT) for 18 h, 6 days after start
Method: (§1) Cells were treated for 18 h with 1 μM of the selective Wee-1 kinase inhibitor MK-1775 (Selleckchem, Houston, USA) or of the dual Wee-1/Myt-1 inhibitor PD-166285 (EMD Merck Millipore/Calbiochem, Molsheim, France) alone or in combination with 6 MBq/mL, 2 MBq/mL and 0.5 MB/mL of ^177Lu-lilotomab for Ramos, Rec-1 and DOHH2 cells respectively. At different times after start of incubation, proteins were extracted to measure the CDK1 phosphorylation levels, in parallel, proliferation was determined and at 18 h and 24 h after start of incubation, the percentage of cells in G2/M was assessed (experiments were performed three time except the cell cycle analysis).
(§2) The activity used for the treatment with ^177Lu-lilotomab was chosen to decrease the proliferation to about 50% for the three cell lines compared with non-treated cells.
(§3) Inhibition of G2/M cell cycle arrest radiosensitises radioresistant Ramos model. The Bliss independence mathematical model was next used to investigate the role of MK-1775 or PD-166285 on the response to ^177Lu-lilotomab. A theoretical therapeutic efficacy was calculated for the two combinations (MK-1775 or PD-166285) in the three cell lines. And the comparison between the experimental and the theoretical curves was done.
(§4) Theoretical efficacyRIT+inhib=EfficacyRIT+Efficacyinhib−(EfficacyRIT×Efficacyinhib)

DOHH2 cells [2] = test: as above; assay type: cell-based, human; conditions: DOHH2, inhibitor alone 1 μM for 18 h, 6 days after start
Method: as §1, §2, §3, §4

Ramos cells [3] = test: Cell cycle analysis (PI, Muse flow cytometer); assay type: cell-based, human; conditions: 1 μM inhibitor + ^177Lu-lilotomab, versus ^177Lu-lilotomab alone or untreated
Method: (§5) Cells were harvested at day 0, 2 h, 18 h, 1 d, 2 d, 3 d, of RIT then fixed in 70% ethanol at −20° C. for 3 hours and stained with Cell Cycle kit (with PI) reagent from Merck Millipore in the dark for 30 min at room temperature before analysis using a Muse® flow cytometer. The percentage of cells in G0/G1, S and G2/M phases was then calculated (mean of three experiments in triplicate).
(§6) At different times after start of incubation, proteins were extracted to measure the CDK1 phosphorylation levels, in parallel, proliferation was determined and at 18 h and 24 h after start of incubation, the percentage of cells in G2/M was assessed (experiments were performed three time except the cell cycle analysis).
(§7) Cells were harvested at 0 h, 2 h, 18 h, 1 d, 2 d, 3 d, and fixed in 70% ethanol at −20° C. for at least 3 h. After staining with the Muse® Cell Cycle Assay Kit (Merck Millipore, Molsheim, France) using propidium iodide in the dark at room temperature for 30 min, cell cycle distribution was analyzed using a Muse® flow cytometer. The percentage of cells in the G0/G1, S and G2/M was calculated (mean of three experiments in triplicate) and the effect of WEE-1 and MYT-1 kinase inhibitors on the cell cycle was assessed.

DOHH2 cells [4] = test: Cell cycle analysis (PI, Muse flow cytometer); assay type: cell-based, human; conditions: DOHH2, 1 μM inhibitor + ^177Lu-lilotomab, versus ^177Lu-lilotomab alone or untreated
Method: as §5, §6, §7

Rec-1 cells [5] = test: Cell cycle analysis (PI, Muse flow cytometer); assay type: cell-based, human; conditions: Rec-1, 1 μM inhibitor + ^177Lu-lilotomab, versus ^177Lu-lilotomab alone or untreated
Method: as §5, §6, §7

Ramos cells [6] = test: Apoptosis induction (Annexin V/7-AAD, Muse flow cytometer); assay type: cell-based, human; conditions: 18 h exposure to unlabelled mAb, at peak time
Method: (§8) Cells were harvested at 0, 2 h, 18 h, 1 d, 2 d, 3 d of RIT. At each time point, apoptosis was detected with […] from Merck Millipore (Annexin V Kit with 7-AAD) in the dark for 30 min at room temperature before analysis using Muse® flow cytometer

DOHH2 cells [7] = test: as above; assay type: cell-based, human; conditions: DOHH2, 18 h exposure to unlabelled mAb, plateau at 18 h
Method: as §8

Rec-1 cells [8] = test: as above; assay type: cell-based, human; conditions: Rec-1, 18 h exposure to unlabelled mAb, at peak time
Method: as §8

CD37 receptor = target: T1, CD37 receptor; conditions: cited from earlier work
OCI-Ly8 tumor xenografts = test: Treatment of mice with tumor xenografts; conditions: single agent

Molecule	Proportion of cells in G2/M, inhibitor combined with ^177Lu-lilotomab (OCI-Ly8 cells)	Proliferation (treated/untreated cells) (Ramos cells [1]) [%]	Proliferation (treated/untreated cells) (DOHH2 cells [2]) [%]	Proportion of cells in G2/M, inhibitor combined with ^177Lu-lilotomab (Ramos cells [3])	Proportion of cells in G2/M, inhibitor combined with ^177Lu-lilotomab (DOHH2 cells [4])	Proportion of cells in G2/M, inhibitor combined with ^177Lu-lilotomab (Rec-1 cells [5])	Apoptosis level (Ramos cells [6])	Apoptosis level (DOHH2 cells [7])	Apoptosis level (Rec-1 cells [8])	Equilibrium dissociation constant (CD37 receptor)	Therapeutic efficacy compared with control (OCI-Ly8 tumor xenografts)
CCN(CC)CCOc1ccc(Nc2ncc3cc(-c4c(Cl)cccc4Cl)c(=O)n(C)c3n2)cc1 [PD-166285]	reduction of the fraction of G2/M cells	~10	18	reduction of the fraction of G2/M cells	higher than that induced by the combination with the MK-1775; also recorded: reduction of the fraction of G2/M cells	reduction of the fraction of G2/M cells	–	–	–	–	–
B1	–	–	–	–	–	–	No apoptosis was induced	No apoptosis was induced	No apoptosis was induced	nanomolar	no therapeutic efficacy
